In the oligonucleotide strings, read from the 5' end, every base follows the letter of its sugar. An asterisk marks phosphorothioate; unmarked linkages are phosphodiester. Other units and linkages are bracketed, terminal groups are in braces. A string of capitals states the bases alone. e = 2'-O-(2-methoxyethyl) (MOE); [5mC] = 5-methylcytosine; d = 2'-deoxy (DNA)

For the series, the system named is human Factor 7 mRNA. As to the kind of experiment: Inhibition of human Factor 7 mRNA by 2-10-2 MOE shortmers in HepB3 cells, electroporation, 1,000 nM. In kind it is cell-based. To be noted: electroporation, 1,000 nM oligonucleotide, approximately 24 hours, relative to untreated control cells. From the text: Short antisense oligonucleotides (shortmers) were designed to target a Factor 7 nucleic acid. The shortmers in Table 17 were designed as 2-10-2 MOE gapmers. The gapmers are 14 nucleotides in length, wherein the central gap segment is comprised of 10 2′-deoxynucleotides and is flanked on both sides (in the 5′ and 3′ directions) by wings comprising 2 nucleotides each. Each nucleotide in the 5′ wing segment and each nucleotide in the 3′ wing segment has a 2′-MOE modification. The internucleoside linkages throughout each gapmer are phosphorothioate (P═S) linkages. All cytidine residues throughout each gapmer are 5-methylcytidines.
Shortmers were evaluated for their ability to reduce human Factor 7 mRNA in HepB3 cells and compared with one 5-10-5 chimeric oligonucleotide from Table 16, ISIS 407939. HepB3 cells at a density of 20,000 cells per well in a 96-well plate were transfected using electroporation with 1,000 nM of antisense oligonucleotide. After a treatment period of approximately 24 hours, RNA was isolated from the cells and Factor 7 mRNA levels were measured by real-time RT-PCR, as described herein. Factor 7 mRNA levels were adjusted according to total RNA content as measured by RIBOGREEN®. Results are presented in Table 17 as percent inhibition of Factor 7 mRNA, relative to untreated control cells. ISIS 407939 is the first oligonucleotide in […] to which the shortmers were compared, and is marked by an asterisk (*).
Consider “435837 (antisense e[5mC]*eT*d[5mC]*dG*d[5mC]*d[5mC]*dT*dG*dG*dA*dA*dG*eG*eA) [compound 435837]”, for which the “% inhibition of human Factor 7 mRNA” value is 37%. As for “435839 (antisense eG*eG*dT*d[5mC]*dA*dG*d[5mC]*dT*dG*dG*dT*d[5mC]*eT*eG) [compound 435839]”, the “% inhibition of human Factor 7 mRNA” value was found to be 14%. As to “435781 (antisense eA*e[5mC]*d[5mC]*dA*d[5mC]*dG*d[5mC]*dG*dG*dT*dG*dG*eT*eG) [compound 435781]”, the “% inhibition of human Factor 7 mRNA” value is 0%. Then “435663 (antisense e[5mC]*e[5mC]*dA*d[5mC]*dA*dT*dG*dG*dA*dT*dA*dT*eT*e[5mC]) [compound 435663]”, with 50%; and “435819 (antisense eT*eT*dT*dG*dT*d[5mC]*d[5mC]*dA*dG*dT*dA*dA*eG*eA) [compound 435819]”, with 1%; and “435723 (antisense eG*e[5mC]*d[5mC]*dA*dG*d[5mC]*dA*dG*dA*dT*d[5mC]*dA*e[5mC]*eG) [compound 435723]”, with 68%. As for “435829 (antisense eG*eG*dG*dT*dA*dG*dA*d[5mC]*d[5mC]*d[5mC]*dT*d[5mC]*eA*eG) [compound 435829]”, the “% inhibition of human Factor 7 mRNA” value was 18%. Regarding “435730 (antisense eT*eA*dA*dA*d[5mC]*dA*dA*d[5mC]*d[5mC]*dG*d[5mC]*d[5mC]*eT*eT) [compound 435730]”, the “% inhibition of human Factor 7 mRNA” value is 49%. Take “435501 (antisense eT*eA*d[5mC]*dT*dG*dG*dG*dA*dG*dA*d[5mC]*d[5mC]*e[5mC]*eT) [compound 435501]”: the “% inhibition of human Factor 7 mRNA” value is reported as 51%. Take “435779 (antisense eT*eG*dA*dG*d[5mC]*dG*d[5mC]*dG*dG*dA*dA*dG*eA*eA) [compound 435779]”: the “% inhibition of human Factor 7 mRNA” value stood at 50%. To “435693 (antisense eG*eG*d[5mC]*dA*dG*dT*d[5mC]*d[5mC]*dT*dG*dG*dG*eT*e[5mC]) [compound 435693]” belongs 43%; to “435798 (antisense eA*eG*d[5mC]*d[5mC]*dA*dG*dA*d[5mC]*dT*dT*dT*d[5mC]*e[5mC]*eT) [compound 435798]”, 54%; to “435675 (antisense eT*eG*dT*d[5mC]*dG*dA*dA*dA*d[5mC]*dA*dG*dT*eG*eG) [compound 435675]”, 24%. Then “435679 (antisense e[5mC]*eG*d[5mC]*dT*dG*dA*dG*dG*dT*d[5mC]*dG*dT*eG*e[5mC]) [compound 435679]”, with 62%. Then “435767 (antisense e[5mC]*eA*d[5mC]*d[5mC]*dA*dA*dG*dT*dT*dT*dA*dT*eG*eG) [compound 435767]”, with 0%; and “435683 (antisense eA*eT*dG*dT*d[5mC]*dG*dT*dG*dG*dT*dT*dG*eG*eT) [compound 435683]”, with 3%; and “435752 (antisense eT*eG*d[5mC]*dA*dG*d[5mC]*dT*dT*dG*d[5mC]*d[5mC]*dA*eG*eG) [compound 435752]”, with 12%. With “435785 (antisense eA*eG*d[5mC]*dT*dT*d[5mC]*dT*d[5mC]*dA*d[5mC]*d[5mC]*dA*e[5mC]*eG) [compound 435785]”, the “% inhibition of human Factor 7 mRNA” value worked out at 46%. For the substance “435777 (antisense e[5mC]*eT*dG*dA*dG*dG*dA*dT*dG*d[5mC]*dA*dG*eG*e[5mC]) [compound 435777]”, the “% inhibition of human Factor 7 mRNA” value stood at 53%. Regarding “435831 (antisense eG*eA*dT*d[5mC]*dT*dT*d[5mC]*dA*d[5mC]*dA*dT*dA*eG*e[5mC]) [compound 435831]”, the “% inhibition of human Factor 7 mRNA” value is listed as 51%. For “435676 (antisense eG*eA*dT*dT*dT*dT*dG*dT*d[5mC]*dG*dA*dA*eA*e[5mC]) [compound 435676]”, the “% inhibition of human Factor 7 mRNA” value is listed as 11%. “435661 (antisense eG*eG*dA*d[5mC]*dA*d[5mC]*d[5mC]*d[5mC]*d[5mC]*dG*dT*d[5mC]*eT*eG) [compound 435661]”: the “% inhibition of human Factor 7 mRNA” value is 18%. Regarding “435699 (antisense eG*e[5mC]*d[5mC]*d[5mC]*d[5mC]*dA*dG*d[5mC]*dT*dG*dA*d[5mC]*eG*eA) [compound 435699]”, the “% inhibition of human Factor 7 mRNA” value is on record as 48%. “435695 (antisense eG*eA*d[5mC]*dT*dG*d[5mC]*dT*dG*d[5mC]*dA*dG*dG*e[5mC]*eA) [compound 435695]”: the “% inhibition of human Factor 7 mRNA” value amounted to 48%.

In the case of “435783 (antisense eA*eA*dA*d[5mC]*d[5mC]*dG*dG*d[5mC]*dA*dT*dG*d[5mC]*eG*e[5mC]) [compound 435783]”, the “% inhibition of human Factor 7 mRNA” value stood at 49%.

Turning to “435666 (antisense eG*eG*dT*dT*dT*dG*d[5mC]*dT*dG*dG*d[5mC]*dA*eT*eT) [compound 435666]”, the “% inhibition of human Factor 7 mRNA” value is on record as 71%.

Take “435820 (antisense e[5mC]*eA*dT*d[5mC]*d[5mC]*dT*dA*dG*dT*d[5mC]*dA*d[5mC]*eT*eG) [compound 435820]”: the “% inhibition of human Factor 7 mRNA” value is 19%. Then “435845 (antisense eG*e[5mC]*dT*d[5mC]*dA*dT*dG*dG*d[5mC]*dA*dG*dA*e[5mC]*eA) [compound 435845]”, with 21%; and “435815 (antisense e[5mC]*eT*d[5mC]*dT*dT*d[5mC]*d[5mC]*dG*dA*dG*d[5mC]*dA*eG*e[5mC]) [compound 435815]”, with 59%; and “435684 (antisense eA*eG*d[5mC]*dA*dG*d[5mC]*dG*d[5mC]*dG*dA*dT*dG*eT*e[5mC]) [compound 435684]”, with 56%. Take “435846 (antisense eT*eG*dG*dA*dG*dA*dG*dA*d[5mC]*d[5mC]*dA*dA*eT*eG) [compound 435846]”: the “% inhibition of human Factor 7 mRNA” value is 7%. On to “435664 (antisense eT*eT*dT*dT*dT*d[5mC]*d[5mC]*dA*d[5mC]*dA*dT*dG*eG*eA) [compound 435664]”, for which the “% inhibition of human Factor 7 mRNA” value worked out at 4%. Take “435714 (antisense eA*e[5mC]*dT*d[5mC]*dG*dA*dT*dG*dT*dA*d[5mC]*dT*eG*eG) [compound 435714]”: the “% inhibition of human Factor 7 mRNA” value turned out to be 3%. In the case of “435636 (antisense eG*eA*dG*dA*d[5mC]*d[5mC]*dA*dT*dG*dA*dT*dG*eA*eA) [compound 435636]”, the “% inhibition of human Factor 7 mRNA” value is on record as 13%.

As to “435760 (antisense eT*e[5mC]*dT*dT*dG*dG*dG*dT*dG*dT*dG*dG*eA*eT) [compound 435760]”, the “% inhibition of human Factor 7 mRNA” value was found to be 17%. With “435827 (antisense eT*e[5mC]*dA*dG*dA*dA*dA*dG*dA*dT*dG*d[5mC]*eA*eG) [compound 435827]”, the “% inhibition of human Factor 7 mRNA” value was found to be 5%. As to “435770 (antisense e[5mC]*eT*d[5mC]*dT*dG*dA*dG*dA*dG*dG*d[5mC]*d[5mC]*e[5mC]*e[5mC]) [compound 435770]”, the “% inhibition of human Factor 7 mRNA” value is 81%. Regarding “435748 (antisense eT*e[5mC]*d[5mC]*d[5mC]*dA*dG*dG*dG*dT*d[5mC]*dT*d[5mC]*eT*eG) [compound 435748]”, the “% inhibition of human Factor 7 mRNA” value stood at 18%.

On to “435792 (antisense eT*eG*d[5mC]*dT*dG*dA*dA*dG*dA*dA*dA*d[5mC]*eT*eG) [compound 435792]”, for which the “% inhibition of human Factor 7 mRNA” value was 9%. Then “435848 (antisense eT*eG*dG*d[5mC]*d[5mC]*dA*d[5mC]*dT*dG*d[5mC]*d[5mC]*dT*e[5mC]*eA) [compound 435848]”, with 32%; and “435686 (antisense e[5mC]*eA*dG*dT*dG*dA*dG*dG*dA*d[5mC]*d[5mC]*dA*e[5mC]*eG) [compound 435686]”, with 31%. Consider “435637 (antisense eT*eG*dA*dA*dG*d[5mC]*d[5mC]*d[5mC]*dA*dA*dG*d[5mC]*eA*eG) [compound 435637]”, for which the “% inhibition of human Factor 7 mRNA” value was determined as 11%. Then “435754 (antisense eT*e[5mC]*dA*dG*d[5mC]*dA*dA*dG*dA*dG*dT*dG*e[5mC]*eA) [compound 435754]”, with 16%; and “435642 (antisense eA*e[5mC]*dA*d[5mC]*dT*dG*dG*dT*d[5mC]*d[5mC]*d[5mC]*d[5mC]*eA*eT) [compound 435642]”, with 60%. To “435667 (antisense eA*eA*dT*dT*d[5mC]*dG*dG*d[5mC]*d[5mC]*dT*dT*dG*eG*eG) [compound 435667]” belongs 16%; to “435639 (antisense eT*e[5mC]*d[5mC]*dA*dG*dA*dA*d[5mC]*dA*dG*d[5mC]*dT*eT*e[5mC]) [compound 435639]”, 31%. Turning to “435818 (antisense eG*eT*d[5mC]*dA*dT*d[5mC]*d[5mC]*dT*dT*dG*dT*d[5mC]*eT*eG) [compound 435818]”, the “% inhibition of human Factor 7 mRNA” value is given as 43%. “435751 (antisense e[5mC]*eT*dT*dG*d[5mC]*d[5mC]*dA*dG*dG*dT*d[5mC]*d[5mC]*eT*e[5mC]) [compound 435751]”: the “% inhibition of human Factor 7 mRNA” value came out at 28%.

The values are drawn from patent US20120214862A1, “MODULATION OF FACTOR 7 EXPRESSION” (ISIS Pharmaceuticals, Inc., priority 2009, published 2012).
